Assay results taken from patent EP2181998B1, “New benzothiazinone derivative and its use as antibacterial agent” (priority 2006, dated 2007).
≈ marks a conversion by molar mass, not a printed value. Where two headings read alike, the source gives them in different places.

What was measured:
[1] = system: Mycobacterium tuberculosis clinical isolate 6341; type: cell-based
M. fortuitum B = conditions: Mycolicibacterium fortuitum, read-out: MIC M.fortuitum
[2] = system: Mycobacterium tuberculosis H37Rv and clinical isolates 6341 and 6374; assay: MIC and MBC, classical method, over several strains; type: cell-based; conditions: for MBC: read-out: MBC (µg/mL) mean; for MIC: read-out: MIC (µg/mL) mean
[3] = system: Mycobacterium tuberculosis clinical isolate 6374; type: cell-based
[4] = system: Mycobacterium smegmatis SG 987; type: cell-based
M. vaccae IMET 10 10670 = type: cell-based
[5] = system: Mycobacterium tuberculosis H37Rv; assay: Murine TB model (experimental hematogenously disseminated tuberculosis); type: in vivo, BALB/c line mice; conditions: for Survival of animals: Groups 4/5, 25 mg/kg oral
[6] = Mycolicibacterium smegmatis, SG987; read-out: MIC M. smegmatis
[7] = Mycolicibacterium vaccae, IMET1010670; read-out: MIC M.vaccae
[8] = Mycolicibacterium smegmatis, SG987, read-out: MIC M. smegmatis
[9] = Mycolicibacterium vaccae, IMET1010670, read-out: MIC M.vaccae
[10] = 25 mg/kg orally, 42 days after inoculation of the culture medium

## O=c1nc(N2CCC3(CC2)OCCO3)sc2c([N+](=O)[O-])cc(C(F)(F)F)cc12 [Compound 1, 2-(1,4-dioxa-8-azaspiro[4.5]dec-8-yl)-8-nitro-6-(trifluoromethyl)-1,3-benzothiazin-4-one]
[1]
  MBC: 2.34 µg/mL (≈ 5.61 µM)
  MIC: 1.56 µg/mL (≈ 3.74 µM)
M. fortuitum B
  MIC: 12.5 ng/mL (≈ 0.0299 µM)
[2]
  MBC: 1.75 µg/mL (≈ 4.19 µM)
  MIC: 1.17 µg/mL (≈ 2.8 µM)
[3]
  MBC: 2.34 µg/mL (≈ 5.61 µM)
  MIC: 1.56 µg/mL (≈ 3.74 µM)
[4]; [6]
  MIC: 12.5 ng/mL (≈ 0.0299 µM)
M. vaccae IMET 10 10670; [7]
  MIC: 3.12 ng/mL (≈ 0.00748 µM)

## O=c1nc(N2CCC3(CC2)OCCO3)sc2c([N+](=O)[O-])cc([N+](=O)[O-])cc12 [Compound 3, 2-(1,4-dioxa-8-azaspiro[4.5]dec-8-yl)-6,8-dinitro-1,3-benzothiazin-4-one]
M. fortuitum B
  MIC: 6 ng/mL (≈ 0.0152 µM)
[4]; [8]
  MIC: 200 ng/mL (≈ 0.507 µM)
M. vaccae IMET 10 10670; [9]
  MIC: 1.5 ng/mL (≈ 0.0038 µM)

## CC1COC2(CCN(c3nc(=O)c4cc([N+](=O)[O-])cc([N+](=O)[O-])c4s3)CC2)O1 (stereo not drawn) [Compound 4, 2-(2-methyl-1,4-dioxa-8-azaspiro[4.5]decyl)-6,8-dinitro-1,3-benzothiazin-4-one]
M. fortuitum B
  MIC: 3 ng/mL (≈ 0.00735 µM)
[4]; [8]
  MIC: 200 ng/mL (≈ 0.49 µM)
M. vaccae IMET 10 10670; [9]
  MIC: 3 ng/mL (≈ 0.00735 µM)

## CC1OC2(CCN(c3nc(=O)c4cc(C(F)(F)F)cc([N+](=O)[O-])c4s3)CC2)OC1C (stereo not drawn) [Compound 5, 2-(2,3-dimethyl-1,4-dioxa-8-azaspiro[4.5]dec-8-yl)-8-nitro-6-(trifluoromethyl)-1,3-benzothiazin-4-one]
[1]
  MBC: 0.39 µg/mL (≈ 0.876 µM)
  MIC: < 0.39 µg/mL
M. fortuitum B
  MIC: 0.078 ng/mL (≈ 0.000175 µM)
[2]
  MBC: 0.45 µg/mL (≈ 1.01 µM)
  MIC: 0.39 µg/mL (≈ 0.876 µM)
[3]
  MBC: 0.39 µg/mL (≈ 0.876 µM)
  MIC: < 0.39 µg/mL
[4]; [6]
  MIC: 6.25 ng/mL (≈ 0.014 µM)
M. vaccae IMET 10 10670; [7]
  MIC: 0.078 ng/mL (≈ 0.000175 µM)

## O=c1nc(N2CCC3(CC2)OCCCCO3)sc2c([N+](=O)[O-])cc([N+](=O)[O-])cc12 [Compound 7, 2-(7,12-dioxa-3-azaspiro[5.6]dodec-3-yl)-6,8-dinitro-1,3-benzothiazin-4-one]
M. fortuitum B
  MIC: 3 ng/mL (≈ 0.0071 µM)
[4]; [8]
  MIC: 780 ng/mL (≈ 1.85 µM)
M. vaccae IMET 10 10670; [9]
  MIC: 3 ng/mL (≈ 0.0071 µM)

## Cc1c([N+](=O)[O-])cc2c(=O)nc(N3CCC4(CC3)OCCO4)sc2c1[N+](=O)[O-] [Compound 8, 2-(1,4-dioxa-8-azaspiro[4.5]dec-8-yl)-7-methyl-6,8-dinitro-1,3-benzothiazin-4-one]
M. fortuitum B
  MIC: 25 ng/mL (≈ 0.0612 µM)
[4]; [8]
  MIC: 400 ng/mL (≈ 0.979 µM)
M. vaccae IMET 10 10670; [9]
  MIC: 25 ng/mL (≈ 0.0612 µM)

## N#Cc1cc([N+](=O)[O-])c2sc(N3CCC4(CC3)OCCO4)nc(=O)c2c1 [Compound 9, 2-(1,4-dioxa-8-azaspiro[4.5]dec-8-yl)-8-nitro-4-oxo-1,3-benzothiazine-6-carbonitrile]
[1]
  MBC: 1.17 µg/mL (≈ 3.13 µM)
  MIC: 0.78 µg/mL (≈ 2.08 µM)
M. fortuitum B
  MIC: 25 ng/mL (≈ 0.0668 µM)
[2]
  MBC: 0.75 µg/mL (≈ 2 µM)
  MIC: 0.52 µg/mL (≈ 1.39 µM)
[3]
  MBC: 0.78 µg/mL (≈ 2.08 µM)
  MIC: 0.58 µg/mL (≈ 1.55 µM)
[4]; [6]
  MIC: 50 ng/mL (≈ 0.134 µM)
M. vaccae IMET 10 10670; [7]
  MIC: 3.12 ng/mL (≈ 0.00833 µM)

## CC1COC2(CCN(c3nc(=O)c4cc(C#N)cc([N+](=O)[O-])c4s3)CC2)O1 (stereo not drawn) [Compound 10, 2-(2-methyl-1,4-dioxa-8-azaspiro[4.5]dec-8-yl)-8-nitro-4-oxo-1,3-benzothiazine-6-carbonitrile]
[1]
  MBC: 0.78 µg/mL (≈ 2.01 µM)
  MIC: 0.58 µg/mL (≈ 1.49 µM)
M. fortuitum B
  MIC: 12.5 ng/mL (≈ 0.0322 µM)
[2]
  MBC: 0.71 µg/mL (≈ 1.83 µM)
  MIC: 0.45 µg/mL (≈ 1.16 µM)
[3]
  MBC: 0.78 µg/mL (≈ 2.01 µM)
  MIC: 0.39 µg/mL (≈ 1 µM)
[4]; [6]
  MIC: 25 ng/mL (≈ 0.0644 µM)
M. vaccae IMET 10 10670; [7]
  MIC: 3.12 ng/mL (≈ 0.00803 µM)

## NNC(=O)c1ccncc1 [Isoniazid (INH), Isoniazid, reference compound]
[5]; 25 mg/kg orally, daily 6 times per week, four-score scale, liver, spleen and lungs
  Injury index: 1,2
[5]; 25 mg/kg orally, 100% - injury index of group / injury index of control x 100
  Efficacy index (%): 70,5%
[5]; [10]
  right lung Culture, without dilution CFU: ∼ 40 CFU
  spleen Culture, without dilution CFU: ∼ 40 CFU
[5]; day of treatment 1, of 10 animals
  Survival of animals: 10
[5]; day of treatment 2, of 10 animals
  Survival of animals: 10
[5]; day of treatment 3, of 10 animals
  Survival of animals: 10
[5]; day of treatment 4, of 10 animals
  Survival of animals: 10
[5]; day of treatment 5, of 10 animals
  Survival of animals: 10
[5]; day of treatment 6, of 10 animals
  Survival of animals: 10
[5]; day of treatment 7, of 10 animals
  Survival of animals: 10
[5]; day of treatment 8, of 10 animals
  Survival of animals: 10
[5]; day of treatment 9, of 10 animals
  Survival of animals: 10
[5]; day of treatment 10, of 10 animals
  Survival of animals: 10
[5]; day of treatment 11, of 10 animals
  Survival of animals: 10
[5]; day of treatment 12, of 10 animals
  Survival of animals: 10
[5]; day of treatment 13, of 10 animals
  Survival of animals: 10
[5]; day of treatment 14, of 10 animals
  Survival of animals: 10
[5]; day of treatment 15, of 10 animals
  Survival of animals: 10
[5]; day of treatment 16, of 10 animals
  Survival of animals: 10
[5]; day of treatment 17, of 10 animals
  Survival of animals: 10
[5]; day of treatment 18, of 10 animals
  Survival of animals: 10
[5]; day of treatment 19, of 10 animals
  Survival of animals: 10
[5]; day of treatment 20, of 10 animals
  Survival of animals: 10
[5]; day of treatment 21, of 10 animals
  Survival of animals: 10
[5]; day of treatment 22, of 10 animals
  Survival of animals: 10
[5]; day of treatment 23, of 10 animals
  Survival of animals: 10
[5]; day of treatment 24, of 10 animals
  Survival of animals: 10
[5]; day of treatment 25, of 10 animals
  Survival of animals: 10
[5]; day of treatment 26, of 10 animals
  Survival of animals: 10
[5]; day of treatment 27
  Survival of animals: 100%
[1]
  MBC: > 100 µg/mL
  MIC: > 100 µg/mL
[1]; read-out: MBC (µg/mL) mean
  MBC: > 100 µg/mL
[1]; read-out: MIC (µg/mL) mean
  MIC: > 100 µg/mL
[3]
  MBC: > 100 µg/mL
  MIC: > 100 µg/mL
[3]; read-out: MBC (µg/mL) mean
  MBC: > 100 µg/mL
[3]; read-out: MIC (µg/mL) mean
  MIC: > 100 µg/mL
